Columns and labels:
Test in all cases: relative viability (nuclei count vs DMSO), 5 days (fraction); higher = more cells survive
NCI-H1915 = settings: first compound 1 µM
Summary of the method: (§1)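 Lung cancer cell lines were seeded in 1536-well plates and dosed by pin tool the next day, with either a single drug or a fixed anchor-drug dose combined with five library-drug doses (not always all listed) spaced in √10 steps. Five days later, one step fixed the cells and stained their nuclei (final 0.05% Triton X-100, 1% formaldehyde, 1 ug/ml Hoechst), and nuclei were counted on 4× images. Relative viability is the nuclei count in treated wells divided by the count in vehicle wells, and each value is the median of duplicate plates.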

NCI-H1944 = system: NCI-H1944
Summary of the method: as §1

NCI-H2023 = system: NCI-H2023
Summary of the method: as §1

NCI-H2087 = system: NCI-H2087
Summary of the method: as §1

NCI-H441 = system: NCI-H441
Summary of the method: as §1

NCI-H460 = system: NCI-H460
Summary of the method: as §1

NCI-H520 = system: NCI-H520
Summary of the method: as §1

NCI-H596 = system: NCI-H596
Summary of the method: as §1

NCI-H650 = system: NCI-H650
Summary of the method: as §1

NCI-H661 = system: NCI-H661
Summary of the method: as §1

NCI-H727 = system: NCI-H727
Summary of the method: as §1

PC-3 [JPC-3] = system: PC-3 [JPC-3]
Summary of the method: as §1

## O=c1cc(N2CCOCC2)oc2c(-c3cccc4c3sc3ccccc34)cccc12 + Cc1nc(Nc2ncc(C(=O)Nc3c(C)cccc3Cl)s2)cc(N2CCN(CCO)CC2)n1 [Dasatinib] (partner 0.075 µM)
NCI-H1915
  relative viability: 0.316
NCI-H1944; first compound 0.01 µM
  relative viability: 0.218
NCI-H1944; first compound 0.03162 µM
  relative viability: 0.234
NCI-H1944; first compound 0.1 µM
  relative viability: 0.203
NCI-H1944; first compound 0.3162 µM
  relative viability: 0.24
NCI-H1944; first compound 1 µM
  relative viability: 0.225
NCI-H2023; first compound 0.01 µM
  relative viability: 0.523
NCI-H2023; first compound 0.03162 µM
  relative viability: 0.677
NCI-H2023; first compound 0.1 µM
  relative viability: 0.612
NCI-H2023; first compound 0.3162 µM
  relative viability: 0.551
NCI-H2023; first compound 1 µM
  relative viability: 0.513
NCI-H2087; first compound 0.01 µM
  relative viability: 0.989
NCI-H2087; first compound 0.03162 µM
  relative viability: 1.02
NCI-H2087; first compound 0.1 µM
  relative viability: 0.917
NCI-H2087; first compound 0.3162 µM
  relative viability: 0.89
NCI-H2087; first compound 1 µM
  relative viability: 0.887
NCI-H441; first compound 0.01 µM
  relative viability: 0.623
NCI-H441; first compound 0.03162 µM
  relative viability: 0.676
NCI-H441; first compound 0.1 µM
  relative viability: 0.594
NCI-H441; first compound 0.3162 µM
  relative viability: 0.492
NCI-H441; first compound 1 µM
  relative viability: 0.574
NCI-H460; first compound 0.01 µM
  relative viability: 0.558
NCI-H460; first compound 0.03162 µM
  relative viability: 0.54
NCI-H460; first compound 0.1 µM
  relative viability: 0.516
NCI-H460; first compound 0.3162 µM
  relative viability: 0.512
NCI-H460; first compound 1 µM
  relative viability: 0.452
NCI-H520; first compound 0.01 µM
  relative viability: 0.184
NCI-H520; first compound 0.03162 µM
  relative viability: 0.201
NCI-H520; first compound 0.1 µM
  relative viability: 0.231
NCI-H520; first compound 0.3162 µM
  relative viability: 0.168
NCI-H520; first compound 1 µM
  relative viability: 0.203
NCI-H596; first compound 0.01 µM
  relative viability: 0.711
NCI-H596; first compound 0.03162 µM
  relative viability: 0.574
NCI-H596; first compound 0.1 µM
  relative viability: 0.561
NCI-H596; first compound 0.3162 µM
  relative viability: 0.558
NCI-H596; first compound 1 µM
  relative viability: 0.648
NCI-H650; first compound 0.03162 µM
  relative viability: 0.493
NCI-H650; first compound 0.1 µM
  relative viability: 0.314
NCI-H650; first compound 0.3162 µM
  relative viability: 0.512
NCI-H650; first compound 1 µM
  relative viability: 0.405
NCI-H661; first compound 0.01 µM
  relative viability: 0.764
NCI-H661; first compound 0.03162 µM
  relative viability: 0.869
NCI-H661; first compound 0.1 µM
  relative viability: 0.889
NCI-H661; first compound 0.3162 µM
  relative viability: 0.993
NCI-H661; first compound 1 µM
  relative viability: 0.842
NCI-H727; first compound 0.01 µM
  relative viability: 0.466
NCI-H727; first compound 0.03162 µM
  relative viability: 0.292
NCI-H727; first compound 0.1 µM
  relative viability: 0.456
NCI-H727; first compound 0.3162 µM
  relative viability: 0.367
NCI-H727; first compound 1 µM
  relative viability: 0.38
PC-3 [JPC-3]; first compound 0.01 µM
  relative viability: 0.97
PC-3 [JPC-3]; first compound 0.03162 µM
  relative viability: 0.974
PC-3 [JPC-3]; first compound 0.1 µM
  relative viability: 1.02
PC-3 [JPC-3]; first compound 0.3162 µM
  relative viability: 0.935
PC-3 [JPC-3]; first compound 1 µM
  relative viability: 0.993

Reference: the supplement of paper PMC10307832
